Test results reported in PubChem BioAssay (NCI).
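96-well plates; 48 h exposure; 5 concentrations. Endpoints by linear interpolation between flanking doses. Not reached: highest tested concentration assigned. Abbreviation: GI50, concentration required for 50% inhibition of growth. TGI is the concentration that stops growth completely.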

Experiments:
Assay in all cases: NCI tumour cell line growth inhibition, 48 h
EKVX NSCLC = system: EKVX NSCLC
HOP-62 NSCLC = system: HOP-62 NSCLC
A549 NSCLC = system: A549 NSCLC
SK-MEL-28 melanoma = system: SK-MEL-28 melanoma
MALME-3M melanoma = system: MALME-3M melanoma
OVCAR-3 ovarian = system: OVCAR-3 ovarian
OVCAR-5 ovarian = system: OVCAR-5 ovarian
SF-539 CNS = system: SF-539 CNS
COLO 205 colon = system: COLO 205 colon
OVCAR-4 ovarian = system: OVCAR-4 ovarian

Row | Compound | TGI (EKVX NSCLC) [µM] | TGI (HOP-62 NSCLC) [µM] | TGI (A549 NSCLC) [µM] | TGI (SK-MEL-28 melanoma) [µM] | TGI (MALME-3M melanoma) [µM] | TGI (OVCAR-3 ovarian) [µM] | TGI (OVCAR-5 ovarian) [µM] | TGI (SF-539 CNS) [µM] | TGI (COLO 205 colon) [µM] | TGI (OVCAR-4 ovarian) [µM] | GI50 (EKVX NSCLC) [µM] | GI50 (HOP-62 NSCLC) [µM] | GI50 (A549 NSCLC) [µM] | GI50 (SK-MEL-28 melanoma) [µM] | GI50 (MALME-3M melanoma) [µM] | GI50 (OVCAR-3 ovarian) [µM] | GI50 (OVCAR-5 ovarian) [µM] | GI50 (SF-539 CNS) [µM] | GI50 (COLO 205 colon) [µM] | GI50 (OVCAR-4 ovarian) [µM]
1 | CC1=C(c2cc(C(=O)Nc3cccc(C(F)(F)F)c3)nc(NC#N)n2)Sc2ccccc2N1 | > 100 | > 100 | > 100 | > 100 | > 100 | > 100 | > 100 | > 100 | > 100 | > 100 |  |  |  |  |  |  |  |  |  | 
2 | O=C(/C=C/c1ccc(Cl)cc1)c1ccncc1 | > 100 | > 100 | > 100 | > 100 | > 100 | > 100 | > 100 | > 100 | > 100 | > 100 |  |  |  |  |  |  |  |  |  | 
3 | COc1ccc2c(c1)C(=O)c1c-2n(CCCCl)c(=O)c2cc(N(C)C)ccc12 | > 100 | 69 | > 100 | > 100 | > 100 | > 100 | > 100 | 47.4 | > 100 | > 100 | > 100 | 26.6 | > 100 | > 100 | 63.8 | > 100 | > 100 | 12.4 | > 100 | 62.9
4 | CC1(C)CC[C@]2(C(=O)O)CC[C@]3(C)[C@H](CC[C@@H]4[C@@]5(C)CCC(=O)C(C)(C)[C@@H]5CC[C@]43C)[C@H]2[C@H]1OC(=O)C(F)(F)F | 30.5 | 27.8 | 31.6 | 28.2 | 30.7 | 26.4 | 30.7 | 18.1 | 23.6 | 29.8 | 14.5 | 13.2 | 9.66 | 13.6 | 12.9 | 12.4 | 15.7 | 5.34 | 6.58 | 13.1
5 | CN1CCN(c2cc(Nc3cc(C4CC4)[nH]n3)nc(Nc3ccc(CC(=O)NCc4cccc(F)c4)cc3)n2)CC1 | 32.4 | 14.4 | 11.3 | 2.46 | 4.55 | 16.5 | 15.8 | 2.28 | 0.607 | 22 | 3.41 | 0.754 | 0.77 | 0.971 | 0.496 | 1.59 | 0.432 | 0.858 | 0.0713 | 1.55
6 | COC(=O)[C@H](Cc1ccccc1)NC(=O)[C@@H](OC)[C@@H]1Cc2cc3cc(OC4CC(OC5CC(O)C(O)C(C)O5)C(O)C(C)O4)c(C)c(O)c3c(O)c2C(=O)[C@H]1OC1CC(OC2CC(OC3CC(C)(O)C(O)C(C)O3)C(O)C(C)O2)C(O)C(C)O1 (stereo not given in full) | > 14.3 | 11.4 | > 14.3 | 0.0368 | 0.0287 | 0.0793 | > 14.3 | 0.065 | 0.0682 | > 14.3 | 0.0393 | 0.0147 | 0.0532 | 0.00578 | 0.00693 | 0.0142 | 0.0396 | 0.0088 | 0.0182 | 0.0277
7 | OC(C(=Nc1ccccc1)c1ccccc1)c1ccccc1 (stereo not given) | 9.35 | 39.8 | 33.6 | 15.2 | 7.01 | 14.3 | 82.3 | 25.3 | 20.9 | 51.8 |  |  |  |  |  |  |  |  |  | 
8 | Cc1nn(C)c(=O)c2nn(-c3ccccc3)c(C)c12 | > 100 | > 100 | > 100 | > 100 | > 100 | > 100 | > 100 | > 100 | > 100 | > 100 |  |  |  |  |  |  |  |  |  | 
9 | O=C(O/N=C1/CCCC/C1=C\c1ccccc1)c1ccc(Cl)cc1 | > 100 | > 100 | > 100 | > 100 | > 100 | > 100 | > 100 | > 100 | > 100 | > 100 |  |  |  |  |  |  |  |  |  | 
10 | C=C1CO[C@@H]2C[C@@H]1CCC1(C)OC1CC/C(C)=C/CC[C@@]2(C)O (stereo not given in full) | 43.9 | > 100 | 34.9 | > 100 | > 100 | 33 | > 100 | 31.3 | > 87.2 | 59.6 | 18.7 | > 58.2 | 17 | > 89.6 | 48.8 | 16.9 | > 100 | 16.1 | 34.4 | 20.9
11 | O=[N+]([O-])c1ccc2c(c1)S(=O)c1ccccc1-2 (stereo not given) | > 100 | > 100 | > 100 | > 100 | > 100 | > 100 | > 100 | > 100 | > 100 | > 100 |  |  |  |  |  |  |  |  |  | 
12 | COc1cc(/C=C2\CCc3ccccc3C2=O)cc(OC)c1OC | 34.3 | 47.8 | 50.1 | 28.4 | 32.9 | 30.1 | 27.9 | 30.8 | 30.7 | 60.8 |  |  |  |  |  |  |  |  |  | 
13 | CCC(C)CC(CC)NCCN1CCN(C(CC)CC(C)CC)C1=S (stereo not given) | 5.13 | 3.21 | 3.37 | 3.06 | 3.19 | 4.08 | 3.32 | 3.43 | 2.95 | 3.91 | 1.93 | 1.82 | 1.76 | 1.69 | 1.74 | 1.97 | 1.72 | 1.97 | 1.6 | 1.59
14 | COC(=O)[C@]12CC[C@@H](C)[C@H](C)[C@@H]1C1=CC[C@@H]3[C@@]4(C)C=C(O)C(=O)C(C)=C4CC[C@@]3(C)[C@]1(C)CC2 | 19.5 | 35.9 | 31.2 | 34 | 42.8 | 24.5 | 38.6 | 27.2 | 30.1 | 26.3 | 4.96 | 18 | 15.1 | 15.8 | 22.4 | 11.6 | 17.8 | 12.2 | 12.5 | 11.9
15 | CC(C)(C)c1nnc2n(c1=O)N=CC(c1ccc(Br)cc1)S2 (stereo not given) | 66.7 | > 100 | > 100 | > 100 | 79.7 | 70.8 | > 100 | 50.9 | > 100 | > 100 | 22.7 | 37.5 | 43 | 34.2 | 26.9 | 21.8 | 42.2 | 19.7 | 39.2 | 33.9
